Source: US6737383B1, “Herbicidal oxadiazolidines” (priority 1999, dated 2004)

What was measured:
[1] = test system: Alexandergrass; assay: Test D Alexandergrass; type: in vivo, Brachiaria plantaginea; conditions: Postemergence
[2] = test system: Spanishneedles; assay: Test D Spanishneedles; type: in vivo, Bidens bipinnata; conditions: Postemergence, 0 to 100 scale; for Spanishneedles plant response rating: 0 no injury, 100 complete control
[3] = test system: common pursiane; assay: Test D common purslane; type: in vivo, Portulaca oleracea; conditions: Postemergence, 0 to 100 scale
[4] = test system: dallisgrass; assay: Test D dallisgrass; type: in vivo, Paspalum dilatatum; conditions: Postemergence, 0 to 100 scale
[5] = Rate 64 g/ha, 0 no injury, 100 complete control
[6] = Rate 125 g/ha, 0 no injury, 100 complete control

For `CC(C)N(C(=O)n1oc(=O)n(C2CC2)c1=O)c1ccc(F)cc1F` [Compound 299], the “Plant response rating, Alexandergrass” value ([1]; Rate 64 g/ha, 0 to 100 scale, 0 no injury, 100 complete control) was 90, the “Plant response rating, Alexandergrass” value ([1]; Rate 125 g/ha, 0 to 100 scale, 0 no injury, 100 complete control) was 100 and the “Plant response rating, Alexandergrass” value ([1]; Rate 250 g/ha, 0 to 100 scale) was 100. The “Plant response rating, Alexandergrass” value ([1]; Rate 500 g/ha, 0 to 100 scale (0 no injury, 100 complete control)) was 100, the “Plant response rating, Alexandergrass” value ([1]; Rate 500 g/ha, 0 to 100 scale) was 100 and the “Spanishneedles plant response rating” value ([2]; Rate 64 g/ha) was 0. For the same molecule, the “Spanishneedles plant response rating” value ([2]; Rate 125 g/ha) was 0, the “Plant response rating, Spanishneedles” value ([2]; Rate 250 g/ha) was 20 and the “Plant response rating, Spanishneedles” value ([2]; Rate 500 g/ha) was 100. The “Plant response rating, C. purslane” value [3, 5] was 0, the “Plant response rating, C. purslane” value [3, 6] was 0 and the “Plant response rating, C. purslane” value ([3]; Rate 250 g/ha) was 0. The “Plant response rating, C. purslane” value ([3]; Rate 500 g/ha) was 0, the “Plant response rating, Dallisgrass” value [4, 5] was 100 and the “Plant response rating, Dallisgrass” value [4, 6] was 100. The “Plant response rating, Dallisgrass” value ([4]; Rate 250 g/ha) was 100 and the “Plant response rating, Dallisgrass” value ([4]; Rate 500 g/ha) was 100.
